Assay results published in patent US4701325A, “Injectable aqueous solution containing hydrogensulfite and/or sulfite and anticancerous benzodiazepine compound” (priority 1983, dated 1987).
Structures can show the parent of a compound that is named as a salt.

Tests used:
p 388 leukemia = test: Antitumor activity in p 388 leukemia cancer-bearing BDF1 mice; type: in vivo; conditions: i.v. once a day for 4 days, compound B 2 mg/Kg/day, NaHSO3 or Na2SO3 20 mg/kg/day
Experimental: By the comparative examintion of mean survival days of the mice, index of life saving was calculated by the equation below: [formula]

[1] = system: ear vein of white rabbits; test: Tissue injury (edema ratio) after intravenous administration into the ear vein of rabbits for 5 days; type: in vivo; conditions: ear vein once a day for 5 days; measured 4 days after final administration; compound B 0.16 mg/Kg/day, NaHSO3 1.6 mg/Kg/day
Experimental: The same materials as those in Example 1 were used to determine the effect thereof administered to white rabbits (male, 2.0-2.3 kg) in groups of four in the ear vein once a day for consective 5 days. The material adminitered to the respective groups was (1) physiological saline, or (2) 0.16 mg of the compound B/Kg/day, (3) 0.16 mg of the compound B+1.6 mg of NaHSO3 /Kg/day or (4) 1.6 mg of NaHSO3 /Kg/day. The solution volumes to be administered were all fixed at 0.5 ml/Kg/day which contains respective material or materials in the above dosage.
For confirmation of the effect, the appearance was observed and the thickness at the administration site was measured 4 days after the final administration to serve as the index of tissue injury.
The edema ratio was determined according to the following equation. [formula]

[2] = Acute toxicity (LD50) in ddY strain mice; type: in vivo; conditions: mouse, in vivo, iv, male ddY mice 18-20 g; combination with 10 times amount of NaHSO3
Experimental: (§1) The materials were administered to ddY strain mice (male, 18-20 g) intravenously to determine the LD50 (mg/Kg). […] Incidentally, NaHSO3 or Na2 SO 3 itself is a substance prescribed in Japanese Parmacopoeia and its safety has been established already.

[3] = Stability of compound B in aqueous solution of NaHSO3 or Na2SO3 by HPLC; type: physicochemical; conditions: 3 hours at room temperature, 0.2 mg/ml compound B, Sample: with 2.0 mg/ml NaHSO3 or Na2SO3, read-out: Ratio of remaining compound B
Experimental: It was confirmed that the stability of the compound B was not affected when an aqueous solution of NaHSO3 or Na2 SO3 was used as the dissolving medium of the compound B. In a sample of 10 ml of an aqueous solution containing 0.2 mg of the compound B and 2.0 mg of NaHSO3 or Na2 SO3 in 1 ml thereof, analysis was made on high-performance liquid chromatography just after dissolving the compound B and after standing the solution for 3 hours at room temperature, to examine the stability of the compound B. The results are as shown in Table 3.

ddY strain mice = test: Acute toxicity (LD50) in ddY strain mice; type: in vivo; conditions: i.v., mice; 10 times amount of NaHSO3
Experimental: as §1

SMILES | Mean survival day (p 388 leukemia; control 10 days) [days] | Index of life saving (%) (p 388 leukemia; relative to physiological saline) | Edema ratio (%) [1] [%] | LD50 [2] [mg/kg] | remaining at 3 h [3] [%] | Effect on acute toxicity of the compound B (in words) (ddY strain mice)
Cc1ccc2c(c1O)NC(S(=O)O)C1CC(/C=C/C(N)=O)=CN1C2=O (stereo not shown) [Compound B, sodium salt of 5,10,11,11a-terahydro-9-hydroxy-8-methyl-5-oxo-11-sulfino-1H-pyrrolo[2,1-c][1,4]benzodiazepin-2-acrylamide] | 18.0 | 80 | 169.4 | 6.23 | 100 | –
O=S([O-])O.[Na+] [NaHSO3, sodium hydrogensulfite, reference compound] | – | – | 0.0 | – | – | did not affect the acute toxicity of the compound B at all
